Data taken from patent US7169290B1, “Biosensor for metal analysis and speciation” (Battelle Energy Alliance, LLC, priority 2002, dated 2007).

Experiments:
Format in all cases: biochemical
[1] = molecular target: T1, purified A. niger NR (E.C. 1.6.6.2) (Aspergillus niger, UniProt P36858); assay: Evaluation of buffer-metal interactions, NR activity by rate of NADPH disappearance; settings: 5 μM metal; for NR sensitivity to metal in TRIS buffered system: 30 mM TRIS buffer pH 7.5; for NR sensitivity to metal in phosphate buffered system: 30 mM phosphate buffer pH 7.5
T1 construct: purchased Sigma-Aldrich Co. (St. Louis, Mo.)
T1 sequence (P36858 1-867): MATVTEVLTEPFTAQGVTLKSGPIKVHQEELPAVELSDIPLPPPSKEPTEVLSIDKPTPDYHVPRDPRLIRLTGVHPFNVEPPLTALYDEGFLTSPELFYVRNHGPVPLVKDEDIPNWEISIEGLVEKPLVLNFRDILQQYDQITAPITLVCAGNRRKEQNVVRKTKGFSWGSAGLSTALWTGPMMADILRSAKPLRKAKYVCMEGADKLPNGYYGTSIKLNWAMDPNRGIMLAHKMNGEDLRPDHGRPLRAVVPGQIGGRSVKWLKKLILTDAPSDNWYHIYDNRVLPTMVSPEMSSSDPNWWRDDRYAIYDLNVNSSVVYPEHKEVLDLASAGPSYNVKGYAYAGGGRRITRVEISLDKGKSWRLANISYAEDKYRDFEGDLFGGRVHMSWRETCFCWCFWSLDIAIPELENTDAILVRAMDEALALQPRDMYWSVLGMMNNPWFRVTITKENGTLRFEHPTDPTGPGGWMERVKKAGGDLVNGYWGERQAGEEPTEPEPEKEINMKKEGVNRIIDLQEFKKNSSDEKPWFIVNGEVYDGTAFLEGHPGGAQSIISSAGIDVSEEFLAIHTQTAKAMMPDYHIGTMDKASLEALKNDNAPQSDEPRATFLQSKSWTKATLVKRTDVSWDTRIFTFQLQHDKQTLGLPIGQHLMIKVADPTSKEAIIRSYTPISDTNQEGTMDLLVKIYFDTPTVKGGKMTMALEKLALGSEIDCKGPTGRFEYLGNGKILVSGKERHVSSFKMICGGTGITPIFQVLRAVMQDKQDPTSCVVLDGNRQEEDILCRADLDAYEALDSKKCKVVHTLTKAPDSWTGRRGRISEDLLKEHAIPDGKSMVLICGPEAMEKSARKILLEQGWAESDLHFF
Description: To determine the buffer that would provide minimal metal-buffer complexation and, therefore, allow maximal metal inhibition to NR activity, an analysis of various pH buffers was performed. HEPES, MOPS, PIPES, phosphate, and TRIS buffers were individually evaluated in the presence of NR and 5 μM of each of the following metals: Cr^3+, Cr^6+, Cd^2+, Cu^2+, Pb^2+, and Zn^2+. An unbuffered assay system was used to establish a baseline of metal-induced enzyme inhibition. Reagents were added in the following order: the metal stock solution, the buffer solution, KNO3 solution, NR, and NADPH.
For these buffer experiments, NR and NADPH solutions were prepared in water rather than in the 30 mM MOPS, as was done for all other experiments. The final concentration of all reagents was 30 mM of each respective buffer, 5 μM metal, 50 μg ml^−1 NR, 10 mM KNO3 and 0.1 mM NADPH. NADPH addition initiated the reaction but NR activity was determined following the method described in Gilliam et al., Anal. Biochem., 212:359–365 (1993), which is based on the rate of NADPH disappearance. The presence of NADPH, which has a peak absorbance at 340 nm, was monitored with respect to time for 3 minutes using a Hewlett Packard 8452A UV-Vis spectrophotometer. NR activity was then reported as a ratio of the change in absorbance of a metal-containing sample to the change in absorbance of a positive (metal-free) control. The inherent instability of NADPH and the potential for oxidation in the presence of the metals used in these experiments was accounted for in negative controls, which contained all reagents but NR.
To select a buffering system that allowed for maximum inhibition of the enzyme by metal ions, several common buffers, HEPES, MOPS, PIPES, Phosphate and TRIS were tested in metal inhibition assays. The buffers used in the assay affected the sensitivity of NR to the metal ions examined due to some of the buffers' ability to chelate metal ions, as shown in FIG. 1. NR activity is reported as the percent of a metal free control. Values represent the averages of five replicate experiments. NR activity assays were also run in an unbuffered water system to establish a baseline level of metal sensitivity and to determine if the buffers were shielding NR from inhibition by any of the metals that were examined. An unbuffered assay system was not selected for further experiments because the pH was not uniformly maintained for the various conditions under which NR activity would be measured. […] Therefore, MOPS was chosen for use in subsequent metal inhibition assays over a wider range of metal concentrations. The phosphate and TRIS buffers appeared to selectively protect NR against different metals. […] The opposite was found when the assay was conducted in a TRIS buffered system where NR was insensitive to Cu^2+ ions and was inhibited by Cd^2+, Cr^6+, Pb^2+, and Zn^2+.

[2] = molecular target: T1, purified A. niger NR (E.C. 1.6.6.2); assay: Regeneration of metal inactivated NR activity by 10 mM EDTA; settings: for NR activity after EDTA treatment, % of control: 100 μM metal five minutes, then 10 mM EDTA; for restoration of NR activity by EDTA after metal exposure / NR activity before EDTA treatment, % of control: 100 μM metal; for restoration of NR activity by EDTA after metal exposure: 10 mM EDTA; for NR activity before EDTA treatment, % of control: five minutes, 25° C., 10 mM KNO3
Description: To determine whether inhibition caused by exposure to the metals could be reversed by the addition of EDTA, NR was exposed to 100 μM of the following metals: Cd^2+, Cr^3+, Cu^2+, Pb^2+ and Zn^2+ for five minutes in a 96-well plate and incubated at 25° C. with 10 mM KNO3. After five minutes, 10 mM EDTA was added and solutions were shaken for 10 seconds. NADPH was added to sets of positive controls, negative controls, and metal/NR and EDTA for evaluation of NR activity both immediately after EDTA addition and 30 minutes after EDTA addition. Enzyme activity was measured by determining the amount of nitrite produced and reported as a percent of a positive control.

[3] = molecular target: T1, purified A. niger NR (E.C. 1.6.6.2); assay: EDTA and NTA chelation experiments, NR activity by nitrite production; settings: for effect of EDTA on the metal's ability to inhibit NR: EDTA 0.1 to 10 mM
Description: To determine the ability of chelating agents to prevent NR inhibition, EDTA or NTA was added to the enzymatic assay. For the experiments in which either EDTA or NTA was used, the reagents were added in the following order: the appropriate metal solution, EDTA or NTA, NR, nitrate, and finally NADPH. To allow sufficient time for the metal and chelating agent to react, the metal and either EDTA or NTA were added together prior to the addition of NR. Final assay metal ion concentrations ranged from 0.01 to 1000 μM. EDTA and NTA had final concentrations of 0.1 mM, 1 mM and 10 mM. Final concentrations of NR, KNO3 and NADPH were as described above. NR activity was assayed by monitoring the production of nitrite, as described above.

[4] = molecular target: T1, purified A. niger NR (E.C. 1.6.6.2); assay: Metal inhibition of NR activity, colorimetric nitrite production (Griess reaction), MOPS buffer; settings: for enzyme inhibition: 1 μM metal ion; for enzyme inhibition / span of concentrations over which NR activity is inhibited: MOPS buffer; for span of concentrations over which NR activity is inhibited: no chelating agent
Description: NR activity was measured using the Griess reaction in which nitrite is colorimetrically determined by diazotization and diazomium coupling reactions of nitrite with sulfanilamide and N-(1-naphthyl)ethylenediamine. Measurements were conducted in 96-well microtiter plates, allowing multiple reactions to be quantified simultaneously. The assay followed the method as described in R. Kneer et al., Phytochemistry, 31:2663–2667 (1992), with modifications including the adaptation for use in a 96-well plate format, the reduction of the assay time to 5 minutes, and the substitution of a 12.5 mM MOPS buffer instead of the 33 mM TRIS buffer used.
This was followed by the addition of 40 μl 0.2% (wt.) N-(1-naphthyl)ethylenediamine. The absorbance of the resulting pink solution read at 540 nm was recorded after ten minutes using a microplate reader (HTS7000 Plus Bioassay Reader, Perkin Elmer, Conn.).
Negative controls containing all reagents except NR were run and analyzed for nitrite. An activity of 100% indicated the rate of nitrate conversion in the absence of Cr(III). Positive controls, which comprised no metal but comprised all other reagents, were also run. Additional controls comprising nitrite, NR and NADPH were run to rule out the possibility that NR reduced the nitrite.
NR activity is reported as a percentage of the experimentally measured activity of the positive (metal-free) control or as a ratio of the change in absorbance of a metal-containing sample to the change in absorbance of a positive (metal-free) control. An activity of 100% indicated the rate of nitrate conversion in the absence of the metal. Data points represent the averages of seven replicate experiments and error bars represent the standard deviation of those averages, unless otherwise stated.
NR, NADPH, and KNO3 were used in the same concentrations as in the metal-free NR and buffer evaluation assays. For metal-inhibition studies in the absence of a chelating agent, the appropriate concentration of metal stock solution was added to the NR and KNO3 solution. The mixture was allowed to incubate at 25° C. for five minutes prior to the addition of NADPH to allow adequate time for the metal and NR to interact. A 12.5 mM MOPS buffer solution was used to maintain the pH at 7.5. Final metal concentrations in the assay solution ranged from 0.01 μM to 1000 μM. Enzyme activity was determined as described above by the calorimetric quantification of nitrite production and reported as a percentage of the nitrite produced in a metal-free control.
The sensitivity of NR to Cr(III) was determined at concentrations ranging from 1 to 10 μM. […] To further determine the extent to which NR was sensitive to metals in aqueous samples, the activity of purified NR was evaluated in the presence of Cd^2+, Cu^2+, Cr^3+, Cr^6+, Ni^2+, Pb^2+, and Zn^2+ ions at concentrations ranging from 0.01 to 1000 μM.

[5] = 12.5 mM MOPS pH 7.5, no chelating agent

Row | Structure (SMILES) | NR sensitivity to metal in TRIS buffered system [1] | NR sensitivity to metal in phosphate buffered system [1] | NR activity after EDTA treatment, % of control [2] | restoration of NR activity by EDTA after metal exposure [2] | NR activity before EDTA treatment, % of control [2] | metal concentrations over which NTA protected NR from metal induced inhibition ([3]; 10 mM NTA) | enzyme inhibition [4] | metal concentration at which NR activity was substantially inhibited [4, 5] | span of concentrations over which NR activity is inhibited [4] | NR activity retained, percent of original activity (metal free control) ([4]; 1000 μM metal ion, 12.5 mM MOPS pH 7.5) | metal concentration at which NR activity was inhibited / adversely affected [4, 5] | effect of NTA on the inhibitory effects of the metal ([3]; 1 mM NTA) | increase of the concentration range over which the metal inhibited NR ([3]; 10 mM EDTA) | metal concentration up to which EDTA protected NR activity ([3]; 10 mM EDTA) | protection of NR by NTA from exposure to the metal ([3]; 10 mM NTA) | effect of EDTA on the metal's ability to inhibit NR ([3]; listed as Cr(VI)) | effect of EDTA on the metal's ability to inhibit NR ([3]; listed as Cr^6+) | NTA concentration up to which the metal's inhibitory effects on NR activity were not affected ([3]; NTA added to assay) | metal concentration at which NR activity was substantially inhibited ([4]; 12.5 mM MOPS pH 7.5, no chelating agent, listed as Cr^6+)
1 | [Cd+2] [Cd^2+, cadmium] | inhibited | relatively insensitive | 28% ± | partially restored | 2.7% ± | – | – | – | – | – | – | – | – | – | – | – | – | – | –
2 | [Cu+2] [Cu^2+, copper] | insensitive | inhibited | 5.1% ± 1.5% | unable to significantly restore | 1.0% ± 0.3% | up to 100 μM | 76% | 1 µM | several orders of magnitude | – | – | – | – | – | – | – | – | – | –
3 | [Zn+2] [Zn^2+, zinc] | inhibited | relatively insensitive | 54% ± | partially restored | 6.6% ± | – | – | – | – | – | – | – | – | – | – | – | – | – | –
4 | [Ni+2] [Ni^2+, nickel] | – | – | – | – | – | – | – | – | – | ~20% | over 100 μM | – | – | – | – | – | – | – | –
5 | [Pb+2] [Pb^2+, lead] | inhibited | relatively insensitive | 40% ± | partially restored | 1.3% ± | – | – | – | – | – | – | – | – | – | – | – | – | – | –
6 | [Cr+3] [Cr^3+, chromium] | inhibited | relatively insensitive | 4.3% ± 1.9% | unable to significantly restore | 5.7% ± 10% | – | 62% | above 4 μM | several orders of magnitude | – | – | did not affect | two orders of magnitude | up to 100 μM | did not protect | unchanged | virtually unaffected | up to 10 mM | 1 µM
